Data as given in PMC7334220, “Diamond Blackfan anemia is mediated by hyperactive Nemo-like kinase” (Nature Communications, 2020).
Where two headings read alike, the source gives them in different places.

Tests used:
NLK = target: T1, NLK (Homo sapiens, UniProt Q9UBE8); test: NLK in vitro kinase assay (NLK, c-Myb, Raptor substrates); type: biochemical; conditions: for inhibition of NLK-mediated phosphorylation of NLK substrates NLK, c-Myb and Raptor: added to activated NLK in vitro, Supplementary Fig. 1c
T1 construct: NLK, p38, or ALK5 for in vitro kinase assays were immunopurified from Kp53A1 cells; endogenous in cells; immunoprecipitated with anti-NLK (Abcam AB97642)
T1 sequence (Q9UBE8 1-527): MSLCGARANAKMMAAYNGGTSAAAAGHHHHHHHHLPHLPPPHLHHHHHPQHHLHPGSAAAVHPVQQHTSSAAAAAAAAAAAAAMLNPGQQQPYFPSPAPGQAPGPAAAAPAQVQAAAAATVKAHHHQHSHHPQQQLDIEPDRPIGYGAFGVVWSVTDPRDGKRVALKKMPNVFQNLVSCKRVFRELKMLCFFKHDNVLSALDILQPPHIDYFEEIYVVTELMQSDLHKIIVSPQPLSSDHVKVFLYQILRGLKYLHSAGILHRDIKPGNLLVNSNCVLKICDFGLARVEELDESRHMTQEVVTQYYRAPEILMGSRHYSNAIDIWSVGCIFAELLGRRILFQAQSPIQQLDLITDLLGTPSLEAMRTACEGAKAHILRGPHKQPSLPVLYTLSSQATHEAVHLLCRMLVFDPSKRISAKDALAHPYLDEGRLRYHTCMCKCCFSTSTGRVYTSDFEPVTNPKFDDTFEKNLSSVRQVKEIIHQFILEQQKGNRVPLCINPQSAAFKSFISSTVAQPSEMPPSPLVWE
Protocol: Equivalent protein was loaded between samples. b—blue Transduced progenitors were differentiated for 15 days and sorted for surface expression of CD235 + , CD41 + and CD11b + population NLK mRNA was assessed by qRT-PCR. c Control and shRPS19-transduced CB progenitors were differentiated for 10 days prior to separation into CD71^+ and CD71^- populations and assessed for pThr298-NLK phosphorylation by Western blot analysis. d—purple CB CD34 + progenitors were transduced with shRNA against luciferase (shLuc) or RPS19 (shRPS19) along with CFP-NLK and YFP-NLK and differentiated for 10 days. NLK dimerization was quantified by FRET. e—left panel NLK was immunoprecipitated from transduced differentiating CD71^+ and CD71^- populations after 10 days, and incubated in the presence of ATP, Mg^2+ and dephosphorylated NLK (i orange), c-Myb (ii—blue) and Raptor (iii—green) for 30 min at 37 °C. Phosphorylation was detected by a combination of anti^-phosphoserine-HRP and anti-phosphothreonine-HRP antibodies, or mouse anti-phosphoserine and anti-mouse-HRP antibodies. e—right panel For comparison, NLK in vitro kinase activity was assessed from CD235^+, CD41^+ and CD11b^+ populations enriched after identical treatments. f A panel of eight small molecule p38 inhibitors were titrated into in vitro kinase assays in the presence of activated NLK or p38 from stimulated Kp53A1 cells. The IC50 for NLK and p38 for each compound was calculated. The data are represented diagrammatically with IC50 values represented as vertical lines along a concentration gradient for NLK and p38. Kinase activity is represented as blue and the extent of inhibition is depicted in white. […] Bars represent means ± SD with individual data points overlaid. n = 3 independent experiments performed in triplicate.Statistics: two-tailed Student’s t test, significant *p < 0.05. Also see Supplementary Figs. 3 and 4. Source data are provided as a Source Data file. […] Inhibitors were added to cells at indicated concentrations with a final DMSO concentration of 0.5%. […] IC50 calculations were obtained using 8–9 concentrations of compound and generated using the IC50 Calculator software by AAT Bioquest®. NLK, p38, or ALK5 for in vitro kinase assays were immunopurified from Kp53A1 cells. NLK activation was induced by incubating cells at 32° for 24-48 h, p38 by stimulating with IL-3, IL-6, SCF, and Epo at the same concentrations used for differentiating erythroid progenitors.
For NLK kinase analysis, cultures were treated as indicated and lysed for 30 min at 4 °C in 750 μl of kinase lysis buffer (50 mM Tris [pH 7.4], 5 mM EDTA, 250 mM NaCl, 0.1% Triton X-100, 50 mM NaF, 0.1 trypsin inhibitor unit of aprotinin per ml, 50 μg of phenylmethylsulfonyl fluoride per ml, 100 μM sodium vanadate, 1 μg of leupeptin per ml). For TGFβR1 kinase analysis, cells were lysed in membrane kinase buffer (10 mM Tris-HCl (pH8.0), 140 mM NaCl, 300 mM KCl, 0.5% Triton X-100, and 0.5% sodium deoxycholate with complete protease inhibitor cocktail (Roche)). Extracts were clarified, and equivalent protein was incubated overnight at 4 °C with antibody (NLK: #AB97642; Abcam, TGFβR1: V22; Santa Cruz Biotechnology). Immune complexes were collected with Catch and Release® V2.0 Reversible Immunoprecipitation System and diluted in kinase buffer (25 mM Tris [pH 7.4], 10 mM MgCl2, 1 mM dithiothreitol). When cell numbers were limiting, NLK activity was amplified by adding 0.5 µg dephosphorylated NLK prior to performing kinase reaction. 50 μl of kinase buffer containing NLK or TGFβR1 sample and 5 μM ATP was incubated in the presence of biotinylated substrate (NLK, c-Myb, or Raptor for NLK and Smad2 or Smad3 for TGFβR1) immobilized on streptavidin-coated 96-well plates.

p38 = test: DiscoveRX kinase profile analysis of SD208, p38; type: biochemical; conditions: 10 µM; kinase profiling; Supplementary Fig. 2a

| IC50 (NLK; Supplementary Fig. 1e, read-out: IC50 against NLK) [nM] | Compound | inhibition of NLK-mediated phosphorylation of NLK substrates NLK, c-Myb and Raptor (NLK) | IC50 (NLK) [nM] | SD208 concentration at which NLK activation was significantly inhibited in in vitro assays (NLK; rebuttal letter) | inhibition of p38 kinase activity (p38) [%] |
| --- | --- | --- | --- | --- | --- |
| 1070 | NC(=O)c1ccc(-c2nc(-c3ccc4c(c3)OCO4)c(-c3ccccn3)[nH]2)cc1 [SB431542] | 55% |  |  |  |
|  | Fc1ccc(Cl)cc1-c1nc(Nc2ccncc2)c2nccnc2n1 [SD208] | ~ 80% | 435 | below 0.1 uM | 99.6 |
